Results as given in patent US7462459B2, “LAT1 transporters expressed in blood brain barrier cells” (XenoPort, Inc., priority 2004, dated 2008).
Like-named read-outs stand apart in the source and are kept apart here.

How the values were obtained:
LAT1 transporter = molecular target: T1, LAT1 transporter (Homo sapiens, UniProt Q01650); assay: KB cell competition assay with 14C-gabapentin; type: cell-based
T1 construct: KB cells endogenously expressing LAT1; endogenous in cells; host or cells: KB cells
Description: To increase the throughput of LAT1 compound screening, a mammalian cell assay was developed. Because LAT1 mRNA is expressed at detectable levels in many cancer cell lines, over 20 human cell lines were screened for LAT1 expression using quantitative PCR. Cell lines included A498, A549, ASPC, CALU, CAPAN, DLD, DU145, H69AR, HCT8, HEK, HELA, HEPG2, HL60, JAR, JUR, KB, LOVO, MCF7, PANC1, PC3, and SW48.
To determine whether a compound interacts with the LAT1 transporter, a competition-binding assay was developed. The assay measures how different concentrations of a test compound block the uptake of a radiolabeled substrates such as ^14C-L-dopa or ^14C-gabapentin. The half-maximal inhibitory concentration (IC50) for inhibition of transport of a substrate by a test compound is an indication of the affinity of the test compound for the LAT1 transporter. Competition binding studies were performed as follows. KB cells were plated in 96-well plates at 100,000 cells/well and incubated for 24 hours at 37° C. Radiolabeled ^14C-gabapentin (˜50,000 cpm/well) was added to each well in the presence and absence of various concentrations of test compound in duplicate or triplicate. Plates were incubated at room temperature for 20 min. Excess radiolabeled substrate was removed and cells were washed three times with a 96-well plate washer with cold assay buffer. Scintillation fluid was added to each well, the plates were sealed and counted in a 96-well plate-based scintillation counter. Data were graphed and analyzed using non-linear regression analysis with Prism Software (GraphPad, Inc., San Diego, Calif.).

hLAT1 [1] = molecular target: T2, hLAT1 (Homo sapiens, UniProt P08195+Q01650); assay: LAT1 competition uptake assay in HEK-TREx-LAT1-4F2hc cells with 3H-gabapentin; type: cell-based
T2 construct: expressed in transfected cells
Method: The plates were incubated at room temperature for 15 minutes.

hLAT1 [2] = molecular target: T2, hLAT1; assay: LAT1 direct uptake assay in HEK-TREx-LAT1-4F2hc cells (LC-MS-MS); type: cell-based; details: read-out: Km or IC50, Direct Uptake
Method: Four concentrations (bracketing the affinity as measured by competition assays) per compound were routinely tested.
Typically, four concentrations bracketing the IC50 were tested. The highest test concentration for each compound was made in an eppendorf tube and diluted into HBSS. The samples were robustly vortexed and centrifuged for 10 minutes at 13,200 rpm to spin down any precipitate. […] Three additional 2-fold dilutions were made in the subsequent rows (B-D or […]) in HBSS.
Alternatively, cells were washed manually with equivalent volumes using a multichannel pipettor.
The plate was incubated at room temperature for 10 minutes.
120 μl of the cell extract was removed from each well and transferred to a fresh 96-well v-bottom polypropylene plate. […] 10 μl of the 50 μM propranolol solution was added to each well of a fresh 96-well plate (a plate amenable for sampling in the LC-MS-MS).

LAT1 [3] = molecular target: T3, LAT1 (Homo sapiens, UniProt Q01650); details: cited from earlier work
Target sequence in this assay (Q01650 whole entry, species assumed): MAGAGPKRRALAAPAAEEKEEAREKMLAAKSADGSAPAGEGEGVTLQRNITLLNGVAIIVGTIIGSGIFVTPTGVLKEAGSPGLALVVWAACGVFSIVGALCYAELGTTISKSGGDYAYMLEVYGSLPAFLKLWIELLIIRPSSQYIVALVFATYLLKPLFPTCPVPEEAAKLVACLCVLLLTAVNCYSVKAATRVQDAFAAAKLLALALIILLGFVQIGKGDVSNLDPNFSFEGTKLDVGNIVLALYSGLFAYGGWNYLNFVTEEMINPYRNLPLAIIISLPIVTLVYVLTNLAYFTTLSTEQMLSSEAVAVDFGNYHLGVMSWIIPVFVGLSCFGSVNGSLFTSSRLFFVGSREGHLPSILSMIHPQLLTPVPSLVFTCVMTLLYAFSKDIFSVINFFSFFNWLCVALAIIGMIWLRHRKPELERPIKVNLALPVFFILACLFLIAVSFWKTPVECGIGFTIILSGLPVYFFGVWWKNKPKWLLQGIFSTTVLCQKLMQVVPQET
Target sequence in this assay (P08195 102-630 partner, species assumed): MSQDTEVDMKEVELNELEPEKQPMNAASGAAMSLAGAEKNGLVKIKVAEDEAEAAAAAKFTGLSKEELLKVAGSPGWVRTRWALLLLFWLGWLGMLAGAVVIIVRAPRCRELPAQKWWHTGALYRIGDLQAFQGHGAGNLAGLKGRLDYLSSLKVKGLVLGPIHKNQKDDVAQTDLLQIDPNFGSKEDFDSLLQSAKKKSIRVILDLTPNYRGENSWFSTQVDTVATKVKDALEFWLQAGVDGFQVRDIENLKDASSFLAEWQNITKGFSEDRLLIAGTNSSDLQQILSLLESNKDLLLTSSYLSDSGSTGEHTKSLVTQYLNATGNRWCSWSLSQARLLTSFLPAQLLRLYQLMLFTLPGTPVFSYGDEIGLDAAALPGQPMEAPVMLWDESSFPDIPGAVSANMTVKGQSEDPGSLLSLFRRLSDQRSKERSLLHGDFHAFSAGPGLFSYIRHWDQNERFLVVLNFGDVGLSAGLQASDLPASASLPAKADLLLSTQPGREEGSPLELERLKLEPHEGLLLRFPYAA

LAT1 [4] = molecular target: T3, LAT1; details: Literature; LAT1-expressing oocytes; cited from earlier work
Target sequence in this assay (Q01650 whole entry, species assumed): as the sequence (Q01650 whole entry, species assumed) above
Target sequence in this assay (P08195 102-630 partner, species assumed): as the sequence (P08195 102-630 partner, species assumed) above

LAT1 [5] = molecular target: T3, LAT1; assay: KB cell direct uptake assay (LC-MS-MS); details: read-out: Km or IC50, Direct Uptake; KB cells; 5 min
LAT1 [6] = molecular target: T3, LAT1; assay: Oocyte direct uptake assay (LC-MS-MS), oocytes expressing hLAT1 and 4F2hc; type: cell-based; design: expressed in transfected cells; host or cells: Xenopus oocytes injected with cRNA
Description: To assess transport function of a specific transporter protein, it can be desirable to clone the cDNA and express the protein in cells that have low endogenous transport activity. Human LAT1 was cloned by PCR, fully sequenced, and subcloned into plasmids that can be used for expression in mammalian cells or Xenopus oocytes. The co-subunit required for LAT1 function, 4F2HC (Genbank accession AB018010), was also cloned and sequenced. Unless otherwise noted, 4F2HC was also co-expressed in each heterologous system described in the example. […] For expression in Xenopus oocytes, in vitro LAT1 and 4F2HC cRNA was prepared and injected into defoliculated oocytes.
To measure directly the uptake of possible substrates, an oocyte uptake assay in which compounds are measured by mass spectroscopy was developed. To illustrate this approach, uptake assays of gabapentin and L-dopa were performed. Oocytes used in this experiment were injected with LAT1 cRNA and incubated at 16-18° C. until maximal transporter expression was reached. Oocytes from the same batch, which were not injected with cRNA, were used in the experiment to serve as a control. […] Following the incubation, the pools of oocytes were washed 4 times with 0.5% BSA ND96 buffer and separated into 2 oocyte subpools containing 4 oocytes each. Subpools were homogenized in 150 μl of ice cold 80% MeOH/H2O, and lysed manually with a P200 pipettor. Lysates were vortexed briefly before being spun in a 4° C. tabletop centrifuge at 13.2 krpm for 15 minutes. Approximately 110 μl of lysate was removed from the eppendorf tubes and placed in a 96-well plate. Lysates were analyzed for gabapentin and L-dopa by liquid chromatography-mass spectroscopy.
Samples were analyzed by LC-MS-MS as follows. […] Analyte fragmentation peaks were integrated using Analyst 1.2 quantitation software, and concentrations were calculated using a calibration curve of signals produced by known concentrations of the compound.
Target sequence in this assay (Q01650 whole entry): as the sequence (Q01650 whole entry, species assumed) above
Target sequence in this assay (as listed by the source partner): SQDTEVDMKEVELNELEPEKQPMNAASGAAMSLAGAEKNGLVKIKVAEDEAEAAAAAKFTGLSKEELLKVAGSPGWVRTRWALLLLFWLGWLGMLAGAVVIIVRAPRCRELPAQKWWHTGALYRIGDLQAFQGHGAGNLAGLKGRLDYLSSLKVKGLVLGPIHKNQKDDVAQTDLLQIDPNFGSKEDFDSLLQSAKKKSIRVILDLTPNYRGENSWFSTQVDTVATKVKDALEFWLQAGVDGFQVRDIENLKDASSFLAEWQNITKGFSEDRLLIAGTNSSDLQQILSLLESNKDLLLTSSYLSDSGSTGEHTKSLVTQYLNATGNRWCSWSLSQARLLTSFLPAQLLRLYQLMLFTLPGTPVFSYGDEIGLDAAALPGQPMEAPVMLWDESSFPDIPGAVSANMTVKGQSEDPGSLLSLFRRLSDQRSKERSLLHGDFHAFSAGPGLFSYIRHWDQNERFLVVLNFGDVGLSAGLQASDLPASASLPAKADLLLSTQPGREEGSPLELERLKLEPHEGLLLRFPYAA

PgP = PgP (Homo sapiens, UniProt P08183); assay: Cellular transwell monolayer efflux assay, MDCK cells with TREx-PgP
LAT1 [7] = molecular target: T3, LAT1; assay: Radiolabel uptake into Xenopus oocytes expressing LAT1 and 4F2HC; type: cell-based; design: expressed in transfected cells; host or cells: Xenopus oocytes injected with cRNA; details: FIG. 2
[8] = 2.5 nM 3H-vinblastine, 250 μM verapamil
[9] = KB cells, read-out: Km or IC50, Competition (14C-GP)
[10] = own data, read-out: Km or IC50, Direct Uptake

T2 sequence (Q01650+P08195 fused): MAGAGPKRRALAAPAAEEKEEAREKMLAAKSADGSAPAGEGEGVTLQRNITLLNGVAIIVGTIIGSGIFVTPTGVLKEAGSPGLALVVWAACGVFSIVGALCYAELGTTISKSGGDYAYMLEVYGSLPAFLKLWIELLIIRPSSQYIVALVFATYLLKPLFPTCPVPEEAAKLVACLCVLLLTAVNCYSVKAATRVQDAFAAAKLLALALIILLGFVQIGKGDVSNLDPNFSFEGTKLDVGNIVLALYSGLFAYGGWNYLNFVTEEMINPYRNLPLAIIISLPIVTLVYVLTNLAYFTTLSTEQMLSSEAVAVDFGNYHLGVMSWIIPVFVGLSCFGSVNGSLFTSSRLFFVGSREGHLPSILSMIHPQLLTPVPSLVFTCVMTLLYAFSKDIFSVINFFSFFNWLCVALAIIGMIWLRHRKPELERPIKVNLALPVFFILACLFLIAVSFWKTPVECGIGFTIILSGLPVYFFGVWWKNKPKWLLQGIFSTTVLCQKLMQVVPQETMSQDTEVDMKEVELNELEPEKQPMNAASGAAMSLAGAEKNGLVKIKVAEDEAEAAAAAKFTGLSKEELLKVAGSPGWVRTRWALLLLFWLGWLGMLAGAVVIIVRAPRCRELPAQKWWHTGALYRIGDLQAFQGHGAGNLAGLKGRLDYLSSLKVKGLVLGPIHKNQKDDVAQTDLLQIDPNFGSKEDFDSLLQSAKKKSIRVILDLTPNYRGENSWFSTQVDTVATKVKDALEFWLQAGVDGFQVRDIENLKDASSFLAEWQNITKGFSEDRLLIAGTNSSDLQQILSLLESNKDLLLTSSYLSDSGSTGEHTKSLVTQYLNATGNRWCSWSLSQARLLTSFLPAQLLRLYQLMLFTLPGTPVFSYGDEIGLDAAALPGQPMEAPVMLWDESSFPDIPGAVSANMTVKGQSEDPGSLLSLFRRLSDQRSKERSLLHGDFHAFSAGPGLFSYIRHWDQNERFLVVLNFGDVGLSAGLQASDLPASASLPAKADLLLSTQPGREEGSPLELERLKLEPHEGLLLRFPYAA
T1 sequence (Q01650 whole entry): as the sequence (Q01650 whole entry, species assumed) above
T1 sequence (P08195 102-630 partner): as the sequence (P08195 102-630 partner, species assumed) above
Sequence of PgP (P08183 whole entry): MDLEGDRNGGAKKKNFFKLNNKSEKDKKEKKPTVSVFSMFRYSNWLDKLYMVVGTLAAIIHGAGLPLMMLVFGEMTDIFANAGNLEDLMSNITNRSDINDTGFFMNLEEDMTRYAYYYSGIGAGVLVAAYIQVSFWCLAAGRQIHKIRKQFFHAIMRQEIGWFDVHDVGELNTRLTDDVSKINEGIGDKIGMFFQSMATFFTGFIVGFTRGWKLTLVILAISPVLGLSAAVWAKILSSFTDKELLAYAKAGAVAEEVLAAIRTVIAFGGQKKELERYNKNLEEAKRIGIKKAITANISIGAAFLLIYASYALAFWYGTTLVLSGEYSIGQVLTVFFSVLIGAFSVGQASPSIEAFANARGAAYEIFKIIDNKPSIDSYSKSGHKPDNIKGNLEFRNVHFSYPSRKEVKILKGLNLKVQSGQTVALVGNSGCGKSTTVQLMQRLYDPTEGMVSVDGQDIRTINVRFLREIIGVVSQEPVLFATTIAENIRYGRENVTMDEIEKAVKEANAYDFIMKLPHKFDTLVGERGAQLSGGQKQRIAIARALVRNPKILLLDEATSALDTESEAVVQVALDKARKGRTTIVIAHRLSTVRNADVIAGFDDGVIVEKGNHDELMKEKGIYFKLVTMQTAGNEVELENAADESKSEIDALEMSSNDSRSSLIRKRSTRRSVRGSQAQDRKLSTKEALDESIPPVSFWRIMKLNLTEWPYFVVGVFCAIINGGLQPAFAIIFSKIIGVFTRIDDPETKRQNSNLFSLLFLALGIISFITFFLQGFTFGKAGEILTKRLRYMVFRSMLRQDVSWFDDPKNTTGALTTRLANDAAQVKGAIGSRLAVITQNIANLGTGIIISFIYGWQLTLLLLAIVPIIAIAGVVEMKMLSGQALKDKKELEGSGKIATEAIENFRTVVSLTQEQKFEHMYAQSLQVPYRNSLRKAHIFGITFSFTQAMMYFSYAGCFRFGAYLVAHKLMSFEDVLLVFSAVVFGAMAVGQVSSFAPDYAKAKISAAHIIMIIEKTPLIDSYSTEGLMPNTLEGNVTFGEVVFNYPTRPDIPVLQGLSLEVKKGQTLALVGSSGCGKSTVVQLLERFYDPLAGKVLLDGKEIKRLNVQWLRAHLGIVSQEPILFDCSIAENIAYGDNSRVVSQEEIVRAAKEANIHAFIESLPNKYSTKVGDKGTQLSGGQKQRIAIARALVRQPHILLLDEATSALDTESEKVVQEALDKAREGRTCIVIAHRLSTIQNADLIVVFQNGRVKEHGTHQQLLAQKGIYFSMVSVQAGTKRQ

With `NCC1(CC(=O)O)CCCCC1` [Gabapentin] as the molecule, how does the IC50 (LAT1 transporter) read?
Its IC50 is 210 µM.

And the IC50 (hLAT1 [1])?
The IC50 was 400 µM.

And the Km (hLAT1 [2])?
The Km was 500 µM.

What about the “Reported Affinity for LAT1” value (LAT1 [3]) of the same molecule?
Its value is 0.15 mM.

And the “Km or IC50, Radiolabel Uptake or Competition” value (LAT1 [4])?
Its value is 340 µM.

And the Km (LAT1 [5])?
Its Km is 160 µM.

What about the Km (LAT1 [6]; read-out: Km or IC50, Direct Uptake, own data) of the same molecule?
Its Km is 140 µM.

With `N[C@@H](Cc1c[nH]c2ccccc12)C(=O)O` [Tryptophan] as the molecule, how does the “Reported Affinity for LAT1” value (LAT1 [3]) read?
The value was 0.35 mM.

What does the source list for `CC[C@]1(O)C[C@@H]2CN(CCc3c([nH]c4ccccc34)[C@@](C(=O)OC)(c3cc4c(cc3OC)N(C)[C@H]3[C@@](O)(C(=O)OC)[C@H](OC(C)=O)[C@]5(CC)C=CCN6CC[C@]43[C@@H]65)C2)C1` [vinblastine]?
PgP substrate status (PgP): is a substrate of PgP; Apical to basolateral transport in the presence of verapamil (PgP; [8]): strongly increased; Basolateral to apical transport in the presence of verapamil (PgP; [8]): strongly decreased

Which results are given for `N[C@@H](Cc1ccccc1)C(=O)O` [Phenylalanine]?
IC50 (LAT1 transporter; [9]): 100 µM; IC50 (hLAT1 [1]; HEK-LAT1 cells, read-out: Km or IC50, Competition (3H-GP)): 160 µM; Km (hLAT1 [2]): 140 µM; Reported Affinity for LAT1 (LAT1 [3]): 0.025 mM; Km or IC50, Radiolabel Uptake or Competition (LAT1 [4]): 12.5 to 14.2 µM; Km (LAT1 [5]): 14.5 µM; Km (LAT1 [6]; [10]): 25 µM

Which IC50 (LAT1 transporter; [9]) does the source give for `N[C@@H](Cc1ccc(O)c(O)c1)C(=O)O` [L-dopa] here?
The IC50 was 190 µM.

And the Km (LAT1 [6]; [10])?
The Km was 66 µM.

What about the “3H-L-dopa uptake into oocytes expressing LAT1 and 4F2HC versus noninjected controls” value (LAT1 [7]) of the same molecule?
The value was “higher levels”.

For `NC1(C(=O)O)CC2CCC1C2` (stereo not shown) [Bicyclohexane amino acid], which “Reported Affinity for LAT1” value (LAT1 [3]) is on record?
The value was 0.18 mM.

With `NCC(CC(=O)O)c1ccc(Cl)cc1` (stereo not shown) [Baclofen] as the molecule, how does the “Reported Affinity for LAT1” value (LAT1 [3]) read?
Its value is 0.25 mM.

Which “Reported Affinity for LAT1” value (LAT1 [3]) does the source give for `CSCC[C@H](N)C(=O)O` [Methionine] here?
Its value is 0.25 mM.

Which “Reported Affinity for LAT1” value (LAT1 [3]) does the source give for `CC(C)C[C@H](N)C(=O)O` [Leucine] here?
Its value is 0.22 mM.
